The NIST ThermoML archive (doi:10.1021/je2002539)
± gives the expanded uncertainty stated by the source.

Test: refractive index (Na D-line) (dimensionless)
Conditions: 298.15 K; 101.33 kPa; Liquid; Standard Abbe refractometry
In the case of `CCCCCCCCCCO` [decan-1-ol], the refractive index is reported as 1.43436 ± 0.00033. With `CCCCCCCCCCCCO` [dodecan-1-ol] the refractive index was 1.44058 ± 0.00033. Molecule `CCCCCCO` [hexan-1-ol] has a refractive index of 1.4158 ± 0.00033. With `CCCCCCCCCO` [nonan-1-ol] the refractive index was 1.43084 ± 0.00033. Molecule `CCCCCCCCO` [octan-1-ol] has a refractive index of 1.42695 ± 0.00033. With `CCCCCO` [pentan-1-ol] the refractive index was 1.40703 ± 0.00033. Molecule `CCCO` [propan-1-ol] has a refractive index of 1.38305 ± 0.00033. `O` [water] showed a refractive index of 1.33248 ± 0.00031.
